From article PMC8370201, “Amaryllidaceae Alkaloid Cherylline Inhibits the Replication of Dengue and Zika Viruses” (Antimicrobial Agents and Chemotherapy, 2021)
Entries after “also recorded” stand apart in the source; their conditions may differ. Like-named read-outs stand apart in the source and are kept apart here.

Tests used:
ZIKV H/PF/2013 [1] = assay: Viral RNA levels by RT-qPCR, ZIKV; format: cell-based, Zika virus (ZIKV); conditions: 12 and 24 h; MOI 2, Huh7.5, 50 μM
ZIKV MR766 = assay: Plaque assay, infectious titers of WT ZIKV MR766 from Huh7.5 cells; format: cell-based, Zika virus (ZIKV); conditions: treated 2 hpi, supernatant 48 h later
DENV2 16881s = assay: Plaque assay, infectious titers of WT DENV2 16881s from Huh7.5 cells; format: cell-based, dengue virus (DENV); conditions: treated 2 hpi, supernatant 48 h later
Experimental: Huh7.5 cells were infected with DENV 16881s, ZIKV H/PF/2013, or ZIKV MR766 (MOI, 0.1) or left uninfected. […] Supernatants were harvested 2 days pi, and PFU were determined by plaque assay on VeroE6 cells. Cells incubated overnight (2 × 10^5 cells/well in 24-well plates) were infected with 10-fold serially diluted virus-containing supernatants for 2 h at 37°C. Inoculum was then replaced with MEM (Life Technologies) containing 1.5% carboxymethylcellulose (Millipore-Sigma). ZIKV- and DENV-infected cells were incubated for 5 and 7 days, respectively. One volume of 10% formaldehyde was added to the cells for fixation. Two hours later, cells were washed with tap water and stained with a 1% crystal violet/10% ethanol solution for 30 min. Wells were rinsed with tap water, and the number of plaques were counted to calculate virus titers.

ZIKV H/PF/2013 [2] = assay: Plaque assay, infectious titers of WT ZIKV H/PF/2013 from Huh7.5 cells; format: cell-based, Zika virus (ZIKV); conditions: treated 2 hpi, supernatant 48 h later
DENVGFP and DENV2 16881s = assay: Viral RNA levels by RT-qPCR, DENV; format: cell-based, dengue virus (DENV); conditions: 12 and 24 h; DENVGFP MOI 0.5 Huh7 25 μM; DENV2 16881s MOI 2 Huh7.5 50 μM
[3] = test system: interferon-sensitive response element (ISRE) transcription; assay: Type I IFN activation assay (ISRE-luciferase) in LL171 cells; format: cell-based, Murine; conditions: 50 μM, 24 h
Experimental: In vitro type I IFN activation was measured in LL171 cells using the luciferase assay system kit (Promega). Briefly, 200 μl LL171 reporter cells (L929 cells expressing an IFN stimulated response element [ISRE]-luciferase) were seeded at 1.5 × 10^4 cells/well in 96-well plates and cultured for 16 h. Medium was replaced with DMEM containing cherylline for 24 h. Supernatant was removed, cells were rinsed with PBS, and lysis buffer was added (luciferase assay reagent; Promega). Then, cells were scraped and transferred into opaque 96-well plates. LAR (luciferase assay reagent; Promega) was added to each well, and luminescence was measured at 480 nm using a microplate spectrophotometer (Synergy H1). 5,6-dimethylxanthenone-4-acetic acid (DMXAA, 20 μg/ml) was used as a positive control. All assays were performed in triplicate.

DENVR2A [4] = assay: microbe, parasite or virus in culture; conditions: Dengue virus, Huh7.5, read-out: EC50 (μM) for DENVR2A
DENVGFP [5] = assay: DENVGFP reporter virus infection of Huh7 cells (flow cytometry / microscopy); conditions: for DENVGFP infected cells by microscopy: MOI 0.15, 72 hpi
[6] = test system: VSV-G pseudotyped HIV-1GFP; format: cell-based
ZIKVR2A [7] = assay: microbe, parasite or virus in culture; conditions: Zika virus, Huh7.5, read-out: EC50 (μM) for ZIKVR2A, Huh7.5 cells, luciferase at 48 hpi
[8] = Cell viability (ATP, Cell-Titer GLO) in Huh7.5 cells; format: cell-based; conditions: human
Experimental: (§1) Where indicated for Huh7.5 and Vero E6 cells and PBMCs, cell viability was measured by monitoring of cellular ATP levels using the Cell-Titer GLO assay kit (Promega). Briefly, 10× 10^3 to 20 × 10^3 cells in 50 to 100 μl were seeded in 48-well or 96-well plates and cultured overnight. AAs were added at the designated concentrations for 24 or 48 h, as specified in the text. Then, 50 to 100 μl of room temperature Cell-Titer GLO reagent was added in each well to room temperature-equilibrated cell plates. Plates were rocked for 2 min and rested for 10 min, and the luminescence signal was measured using a microplate spectrophotometer (Biotek Synergy H1 or Tecan Spark multimode microplate reader). Viability was expressed as a fold change calculated using the value of DMSO-treated cells at each concentration; for each AA and CC50, values were determined.

Huh7 cells = assay: XTT cytotoxicity assay in Huh7 cells; format: cell-based, human; conditions: 0.4 to 400 μM, 72 hours
Experimental: Cytotoxicity properties were titrated by metabolism monitoring using the XTT [2,3-bis-(2-methoxy-4-nitro-5-sulfophenyl)-2H-tetrazolium-5-carboxanilide] assay kit (Roche, Millipore Sigma), as described before ([24]). Briefly, Huh7 cells were seeded at 10 × 10^3 cells per well in 96-well plates. […] After 72 h of incubation, medium was replaced by phenol-free DMEM (Wisent) containing 0.3 mg/ml XTT, and cells were incubated for 4 h. Absorbance was measured at 450nm using a microplate spectrophotometer (Synergy H1, Biotek). Treatment conditions with 0.5% DMSO were used as the reference control. The percentage of cell viability was calculated at each concentration.

ZIKVR2A [9] = conditions: for SI ZIKVR2A (therapeutic selectivity index): CC50/EC50, Huh7.5
DENVGFP [10] = assay: DENVGFP infection of PBMCs with antibody-dependent enhancement (flow cytometry); conditions: 30 μM
DENVR2A [11] = conditions: CC50/EC50, Huh7.5
DENVGFP [12] = assay: Time-of-drug-addition and -removal assays, DENVGFP in Huh7 cells; format: cell-based, dengue virus (DENV)
Experimental: For the time-of-drug-addition assay, at the time of infection, AAs were added in wells corresponding to 0 h. At 2 hpi, viral inoculum was removed from every well, and AAs were added back to wells corresponding to 0 h and 2 h. At 4, 7, 12, and 24 hpi, AAs or DMSO diluted in DMEM was added to the appropriate wells. After 72 h, cells were trypsinized and fixed in 4% formaldehyde to measure the percentage of infected cells on an FC500 MPL cytometer. Alternatively, pictures of Hoechst 33342-stained cells were acquired on an Axio Observer microscope. All assays were performed in triplicate.
At 2 hpi, plates were washed, and medium was replaced to remove remaining viruses in the supernatant. AAs were added back to all wells, except the ones corresponding to 2 h of treatment, in which fresh medium exclusive of any AA was added. Accordingly, after 4, 7, and 12 h of infection, the supernatant was replaced by fresh medium in corresponding wells. After 72 h of incubation, results were acquired as for the time-of-drug-addition assay. All assays were performed in triplicate.

ZIKV NS5 RdRp = test system: ZIKV NS5 RdRp; set-up: method as in PMID 32452420; conditions: 100 μM; cited from earlier work
West Nile virus NS5 = test system: West Nile virus NS5; set-up: method as in PMID 19062063; conditions: cited from earlier work
PBMCs = assay: Cytotoxicity in PBMCs (ATP); format: cell-based, human; conditions: 48 h posttreatment, cherylline 30 μM
Experimental: as §1

DENV = test system: DENV; set-up: method as in PMID 20496087; conditions: read-out: EC50, inhibition of DENV; cited from earlier work
[13] = added at 24 hpi, cherylline 50 μM, NITD008 10 μM

## COc1cc2c(cc1O)CN(C)C[C@H]2c1ccc(O)cc1 [Cherylline, cherylline]
ZIKV H/PF/2013 [1]
  viral RNA levels (RT-qPCR): decrease in viral RNA levels
ZIKV MR766; AAs 50 μM
  decrease in WT ZIKV MR766 replication: 8 fold
  decrease in ZIKV MR766 viral titer: 88%
DENV2 16881s; 50 μM
  decrease in DENV 16881s viral titers: 17 fold
ZIKV H/PF/2013 [2]; AAs 50 μM
  decrease in ZIKV H/PF/2013 viral titer: 100 fold
DENVGFP and DENV2 16881s
  viral RNA levels (RT-qPCR): decrease in viral RNA levels
[3]
  type I interferon (IFN) induction, ISRE transcription: did not trigger a significant amount of type I interferon
DENVR2A [4]
  EC50: 8.8 µM
DENVGFP [5]; Dengue virus, Huh-7, read-out: EC50, DENVGFP infection
  EC50: 8 µM
DENVGFP [5]; Huh7, 0.4 μM
  DENVGFP infected cells by microscopy: no apparent difference with the control
DENVGFP [5]; Huh7, 2 μM
  DENVGFP infected cells by microscopy: most of the cells were infected
DENVGFP [5]; Huh7, 10 μM
  DENVGFP infected cells by microscopy: Several foci of infected cells became visible
DENVGFP [5]; Huh7, 50 μM
  DENVGFP infected cells by microscopy: no detectable infection; also recorded: no infected cells were observed
[6]
  HIV-1 infection: no effect; also recorded: did not affect HIV-1 infection; also recorded: did not detect any antiretroviral activity
ZIKVR2A [7]
  EC50: 20.3 µM
[8]
  CC50 at 48 h: > 250 µM
Huh7 cells
  cytotoxic activity of AAs: cytotoxic
ZIKVR2A [9]
  SI ZIKVR2A (therapeutic selectivity index): >12.3
ZIKVR2A [9]; read-out: EC50 (μM) for ZIKVR2A, Huh7.5 cells, luciferase at 48 hpi
  EC50: 20.3 µM
DENVGFP [10]; MOI 2, 72 hpi
  median GFP+ cells: 0.1%
DENVGFP [10]; MOI 2, 72 h
  decrease in the percentage of GFP+ cells: 5.3 fold
DENVR2A [11]
  SI DENVR2A (therapeutic selectivity index): >28
DENVGFP [12]; Huh7, treated 2 h prior to infection, removed 2 hpi, microscopy
  infection after removal of compound 2 hpi vs continuous treatment: restored virus replication completely
DENVGFP [12]; [13]
  time of drug addition: effect on DENVGFP-infected Huh7 cells 72 hpi: lost one-third of its inhibitory potential
DENVGFP [12]; cherylline 50 μM, added at 12 hpi
  time of drug addition: effect on DENVGFP-infected Huh7 cells 72 hpi: some cherylline antiviral activity was lost
DENVGFP [12]; cherylline 50 μM, added between 0 and 7 hpi
  time of drug addition: effect on DENVGFP-infected Huh7 cells 72 hpi: entirely blocked viral replication
DENVGFP [12]; cherylline 50 μM, present for the first 12 h
  time of drug removal: inhibition of DENVGFP replication: successfully impaired DENV replication
DENVGFP [12]; cherylline 50 μM, removed at 2, 4, or 7 hpi
  time of drug removal: inhibition of DENVGFP replication: inhibition of viral replication was lost

## O[C@H]1[C@H]2c3cc4c(cc3CN3CCC(=C[C@@H]1O)[C@H]23)OCO4 [Lycorine, lycorine]
ZIKV NS5 RdRp
  inhibition of ZIKV NS5 RdRp activity in vitro: 80%
West Nile virus NS5
  effect on West Nile virus NS5: no effect
DENVR2A [4]
  EC50: 0.16 µM
DENVGFP [5]; Huh7, treated 2 h before DENVGFP MOI 0.15, 72 hpi, at the chosen concentration
  anti-DENV activity in screening (GFP microscopy, words): sharp decrease in DENV-GFP-infected cells
ZIKVR2A [7]
  EC50: 0.41 µM
[8]; Huh7.5 cells, Huh7.5, ATP, 48 h posttreatment, read-out: CC50
  CC50 at 48 h: 14.5 µM
Huh7 cells
  cytotoxic activity of AAs: cytotoxic
ZIKVR2A [9]
  SI ZIKVR2A (therapeutic selectivity index): 35.4
DENVR2A [11]
  SI DENVR2A (therapeutic selectivity index): 90.6

## C#C[C@@]1(O)[C@H](O)[C@@H](CO)O[C@H]1n1ccc2c(N)ncnc21 [NITD008, reference compound]
ZIKV MR766
  production of ZIKV MR766 infectious particles (words): completely hindered the production of infectious particles
DENV2 16881s; AAs 50 μM
  production of DENV infectious particles (words): completely hindered the production of infectious particles
ZIKV H/PF/2013 [2]
  production of ZIKV H/PF/2013 infectious particles (words): completely hindered the production of infectious particles
PBMCs
  cytotoxicity in PBMCs: cytotoxic in PBMCs
DENVGFP [12]; NITD008 10 μM, added at 0, 2, 4, 7, or 12 hpi
  time of drug addition: effect on DENVGFP-infected Huh7 cells 72 hpi: abrogated GFP expression
DENVGFP [12]; [13]
  time of drug addition: effect on DENVGFP-infected Huh7 cells 72 hpi: Low levels of infection rose

## COc1cc2c(cc1OC)-c1cc3ccc(OC)c(OC)c3c[n+]1CC2 [Palmatine]
DENV
  EC50: 26.4 µM
